According to PMC5762315, “Inhibition of polo-like kinase 4 (PLK4): a new therapeutic option for rhabdoid tumors and pediatric medulloblastoma” (Oncotarget, 2017):
Values joined by “and” are separate entries in the source; they are usually repeats but may differ in a detail not shown here. Equal entries are not always repeated.

Assays:
various kinases [1] = molecular target: various kinases (Homo sapiens, UniProt O00238); assay: LanthaScreen Eu Kinase Binding Assay, panel of 486 biochemical kinase assays; conditions: BMPR1B (ALK6)
various kinases [2] = molecular target: various kinases (Homo sapiens, UniProt P06493); assay: as above; conditions: CDK1/cyclin A2
various kinases [3] = molecular target: various kinases (Homo sapiens, UniProt P10721, T670I/V559D); assay: as above; conditions: KIT V559D T670I
various kinases [4] = molecular target: various kinases (Homo sapiens, UniProt P15056); assay: as above; conditions: BRAF
various kinases [5] = molecular target: various kinases (Homo sapiens, UniProt P29320); assay: as above; conditions: EPHA3
various kinases [6] = molecular target: T1, various kinases (Homo sapiens, UniProt P33981); assay: as above; conditions: kinase TTK; LanthaScreen Binding
T1 sequence (P33981 1-857): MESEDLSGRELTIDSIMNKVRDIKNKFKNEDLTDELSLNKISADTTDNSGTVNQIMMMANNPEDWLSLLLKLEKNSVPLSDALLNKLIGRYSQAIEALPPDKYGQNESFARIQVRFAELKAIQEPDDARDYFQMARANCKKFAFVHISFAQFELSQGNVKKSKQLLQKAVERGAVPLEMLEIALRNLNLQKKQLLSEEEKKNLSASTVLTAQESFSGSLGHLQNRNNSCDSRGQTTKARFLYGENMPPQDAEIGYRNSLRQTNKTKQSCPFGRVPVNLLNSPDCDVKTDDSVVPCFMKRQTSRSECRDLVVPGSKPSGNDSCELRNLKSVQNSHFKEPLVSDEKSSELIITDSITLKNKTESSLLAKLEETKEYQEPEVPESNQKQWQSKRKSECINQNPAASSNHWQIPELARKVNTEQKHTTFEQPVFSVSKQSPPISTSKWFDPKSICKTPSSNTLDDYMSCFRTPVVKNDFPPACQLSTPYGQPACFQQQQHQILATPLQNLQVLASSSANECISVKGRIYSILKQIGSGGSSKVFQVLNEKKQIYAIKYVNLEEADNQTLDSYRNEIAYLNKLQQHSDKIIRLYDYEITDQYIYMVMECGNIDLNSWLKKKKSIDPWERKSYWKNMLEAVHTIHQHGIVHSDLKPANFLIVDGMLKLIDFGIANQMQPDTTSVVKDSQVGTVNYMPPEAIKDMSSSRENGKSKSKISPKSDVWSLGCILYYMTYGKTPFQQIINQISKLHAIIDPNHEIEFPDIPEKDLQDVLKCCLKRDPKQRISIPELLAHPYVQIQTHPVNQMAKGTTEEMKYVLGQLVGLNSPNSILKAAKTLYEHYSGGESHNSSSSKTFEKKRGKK

various kinases [7] = molecular target: various kinases (Homo sapiens, UniProt P36894); assay: as above; conditions: BMPR1A (ALK3)
various kinases [8] = molecular target: various kinases (Homo sapiens, UniProt P45983); assay: as above; conditions: MAPK8 (JNK1)
various kinases [9] = molecular target: various kinases (Homo sapiens, UniProt Q02750); assay: as above; conditions: MAP2K1 (MEK1)
various kinases [10] = molecular target: various kinases (Homo sapiens, UniProt Q15835); assay: as above; conditions: GRK1
various kinases [11] = molecular target: various kinases (Homo sapiens, UniProt Q2M2I8); assay: as above; conditions: AAK1
various kinases [12] = molecular target: various kinases (Homo sapiens, UniProt Q86UX6); assay: as above; conditions: kinase STK32C (YANK3); LanthaScreen Binding
various kinases [13] = molecular target: various kinases (Homo sapiens, UniProt Q8N5S9); assay: as above; conditions: CAMKK1 (CAMKKA)
various kinases [14] = molecular target: various kinases (Homo sapiens, UniProt Q99683); assay: as above; conditions: MAP3K5 (ASK1)
various kinases [15] = molecular target: various kinases (Homo sapiens, UniProt Q9BWU1); assay: as above
various kinases [16] = molecular target: various kinases (Homo sapiens, UniProt Q9BYT3); assay: as above; conditions: kinase STK33; LanthaScreen Binding
various kinases [17] = molecular target: various kinases (Homo sapiens, UniProt Q9UBE8); assay: as above; conditions: NLK
various kinases [18] = assay: as above
G401 cells = assay: Viability assay (Presto Blue), G401; assay type: cell-based; conditions: Homo sapiens, G-401, dose-response 1nM to 10μM
Protocol: Except DAOY and D283, all cell lines were plated with 2 x 10^3 cells per well 96-well and the absorbance was measured after 48 and 72 hours at drug concentrations of 5, 10, 50, 100, 200, 500nM, 1μM and 5μM.

DAOY cells = assay: Viability assay (Presto Blue), DAOY; assay type: cell-based; conditions: Homo sapiens, dose-response 1nM to 10μM
[19] = tested on: BT-12 AT/RT orthotopic xenografts; assay: Intracranial AT/RT xenograft tumors; assay type: in vivo, athymic mice
Description: Six-week-old female athymic mice (rnu/rnu genotype, BALB/c background) were purchased from Envigo (Harlan) and housed under aseptic conditions, which included filtered air and sterilized food, water, bedding, and cages. The Northwestern University Institutional Animal Care and Use Committee approved all animal protocols. The BT-12 AT/RT cell line, which has high expression of PLK4 was modified to express luciferase and injected intracranially in nude mice as previously described. Each mouse was injected with a cell suspension (10,000 cells/3μL) into the right caudate putamen of the brain. […] Bioluminescence monitoring was performed twice a week throughout the course of the experiment for quantitative measurement of tumor growth and response to therapy. Kaplan-Meier survival analysis was performed to assess survival benefit within the treatment group as compared to controls. Differences between survival curves were calculated using a log-rank test. Brains were resected at 6 hours following completion of the treatment and placed in 4% paraformaldehyde for subsequent histological examination.

[20] = H&E of xenografts, treated vs control, p-value<0.0001

Chain of various kinases (Homo sapiens, UniProt Q86UX6) (Q86UX6 whole entry): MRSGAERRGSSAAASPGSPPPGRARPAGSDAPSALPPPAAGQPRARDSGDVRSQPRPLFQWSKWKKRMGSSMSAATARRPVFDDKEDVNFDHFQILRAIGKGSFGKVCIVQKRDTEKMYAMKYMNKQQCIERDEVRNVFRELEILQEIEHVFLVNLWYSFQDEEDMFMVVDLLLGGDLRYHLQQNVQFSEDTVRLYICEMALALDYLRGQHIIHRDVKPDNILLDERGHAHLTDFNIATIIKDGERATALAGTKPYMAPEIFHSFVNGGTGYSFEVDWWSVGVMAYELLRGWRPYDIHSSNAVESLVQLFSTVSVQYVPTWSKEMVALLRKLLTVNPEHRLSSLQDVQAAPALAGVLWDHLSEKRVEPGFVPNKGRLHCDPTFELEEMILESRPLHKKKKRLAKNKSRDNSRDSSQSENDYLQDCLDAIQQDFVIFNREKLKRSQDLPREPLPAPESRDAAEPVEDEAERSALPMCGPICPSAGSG
Chain of various kinases (Homo sapiens, UniProt Q9BYT3) (Q9BYT3 whole entry): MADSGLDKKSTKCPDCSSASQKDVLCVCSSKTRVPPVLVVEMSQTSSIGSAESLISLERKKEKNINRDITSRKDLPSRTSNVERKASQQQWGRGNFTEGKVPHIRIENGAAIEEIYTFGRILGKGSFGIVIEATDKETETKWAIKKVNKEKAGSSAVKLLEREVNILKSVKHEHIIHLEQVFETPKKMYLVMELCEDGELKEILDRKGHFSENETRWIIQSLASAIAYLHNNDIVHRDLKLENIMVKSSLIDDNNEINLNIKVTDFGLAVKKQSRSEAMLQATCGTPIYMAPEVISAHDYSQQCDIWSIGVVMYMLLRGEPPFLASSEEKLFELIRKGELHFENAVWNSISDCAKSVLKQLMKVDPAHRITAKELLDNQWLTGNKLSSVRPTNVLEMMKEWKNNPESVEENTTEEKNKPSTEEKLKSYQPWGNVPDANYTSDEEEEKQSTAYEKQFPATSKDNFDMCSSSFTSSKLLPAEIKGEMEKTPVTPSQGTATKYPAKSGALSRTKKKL
Chain of various kinases (Homo sapiens, UniProt Q9BWU1) (Q9BWU1 whole entry): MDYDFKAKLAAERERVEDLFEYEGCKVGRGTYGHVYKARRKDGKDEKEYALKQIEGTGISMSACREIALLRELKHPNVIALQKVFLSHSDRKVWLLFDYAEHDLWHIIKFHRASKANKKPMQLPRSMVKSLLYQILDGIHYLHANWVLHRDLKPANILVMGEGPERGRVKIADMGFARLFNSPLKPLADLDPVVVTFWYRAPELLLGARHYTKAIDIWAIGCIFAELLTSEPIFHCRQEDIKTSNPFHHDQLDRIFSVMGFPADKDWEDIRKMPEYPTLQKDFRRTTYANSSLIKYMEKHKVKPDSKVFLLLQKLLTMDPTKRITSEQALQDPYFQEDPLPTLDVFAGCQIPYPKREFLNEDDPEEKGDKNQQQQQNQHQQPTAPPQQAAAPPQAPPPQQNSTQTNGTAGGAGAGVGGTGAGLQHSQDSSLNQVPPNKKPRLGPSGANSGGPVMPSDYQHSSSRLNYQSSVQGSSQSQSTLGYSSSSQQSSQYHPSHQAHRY
Chain of various kinases (Homo sapiens, UniProt P29320) (P29320 21-983): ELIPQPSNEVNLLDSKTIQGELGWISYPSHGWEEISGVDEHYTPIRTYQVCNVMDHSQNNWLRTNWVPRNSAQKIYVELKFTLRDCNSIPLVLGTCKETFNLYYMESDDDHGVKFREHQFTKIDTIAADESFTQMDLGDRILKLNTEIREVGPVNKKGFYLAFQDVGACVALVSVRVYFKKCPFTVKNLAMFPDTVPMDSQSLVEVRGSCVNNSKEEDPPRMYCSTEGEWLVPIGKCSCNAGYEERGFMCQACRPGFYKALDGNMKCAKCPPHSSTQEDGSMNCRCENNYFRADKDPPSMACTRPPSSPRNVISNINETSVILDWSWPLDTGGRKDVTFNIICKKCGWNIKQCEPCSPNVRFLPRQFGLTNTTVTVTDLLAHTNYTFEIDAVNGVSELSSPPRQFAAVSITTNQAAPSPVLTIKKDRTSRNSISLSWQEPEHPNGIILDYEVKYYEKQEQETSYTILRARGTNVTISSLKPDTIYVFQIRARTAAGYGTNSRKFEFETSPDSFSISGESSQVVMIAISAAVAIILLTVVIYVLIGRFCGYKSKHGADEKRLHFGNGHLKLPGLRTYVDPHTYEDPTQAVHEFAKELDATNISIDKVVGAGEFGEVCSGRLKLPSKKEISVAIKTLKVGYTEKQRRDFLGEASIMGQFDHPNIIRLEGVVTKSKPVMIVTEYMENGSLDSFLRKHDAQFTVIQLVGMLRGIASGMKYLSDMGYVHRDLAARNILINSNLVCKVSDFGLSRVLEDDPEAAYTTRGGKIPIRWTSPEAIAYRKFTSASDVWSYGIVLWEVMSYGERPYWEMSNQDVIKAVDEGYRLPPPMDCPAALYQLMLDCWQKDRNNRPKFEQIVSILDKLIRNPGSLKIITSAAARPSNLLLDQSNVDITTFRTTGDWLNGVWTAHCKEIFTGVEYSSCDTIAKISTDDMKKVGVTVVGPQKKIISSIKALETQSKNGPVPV
Chain of various kinases (Homo sapiens, UniProt P45983) (P45983 whole entry): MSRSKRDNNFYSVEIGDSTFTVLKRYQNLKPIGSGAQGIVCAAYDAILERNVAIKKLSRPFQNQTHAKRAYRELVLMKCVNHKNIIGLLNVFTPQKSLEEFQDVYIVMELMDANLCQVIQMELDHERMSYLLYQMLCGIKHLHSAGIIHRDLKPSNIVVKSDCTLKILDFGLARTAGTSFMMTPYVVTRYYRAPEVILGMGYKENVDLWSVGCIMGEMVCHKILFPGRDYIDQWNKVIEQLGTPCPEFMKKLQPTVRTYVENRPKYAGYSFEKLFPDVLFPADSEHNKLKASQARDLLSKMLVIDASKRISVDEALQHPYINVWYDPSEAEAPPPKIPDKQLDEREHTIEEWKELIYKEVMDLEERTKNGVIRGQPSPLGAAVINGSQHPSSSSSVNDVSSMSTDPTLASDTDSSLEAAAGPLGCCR
Chain of various kinases (Homo sapiens, UniProt Q9UBE8) (Q9UBE8 whole entry): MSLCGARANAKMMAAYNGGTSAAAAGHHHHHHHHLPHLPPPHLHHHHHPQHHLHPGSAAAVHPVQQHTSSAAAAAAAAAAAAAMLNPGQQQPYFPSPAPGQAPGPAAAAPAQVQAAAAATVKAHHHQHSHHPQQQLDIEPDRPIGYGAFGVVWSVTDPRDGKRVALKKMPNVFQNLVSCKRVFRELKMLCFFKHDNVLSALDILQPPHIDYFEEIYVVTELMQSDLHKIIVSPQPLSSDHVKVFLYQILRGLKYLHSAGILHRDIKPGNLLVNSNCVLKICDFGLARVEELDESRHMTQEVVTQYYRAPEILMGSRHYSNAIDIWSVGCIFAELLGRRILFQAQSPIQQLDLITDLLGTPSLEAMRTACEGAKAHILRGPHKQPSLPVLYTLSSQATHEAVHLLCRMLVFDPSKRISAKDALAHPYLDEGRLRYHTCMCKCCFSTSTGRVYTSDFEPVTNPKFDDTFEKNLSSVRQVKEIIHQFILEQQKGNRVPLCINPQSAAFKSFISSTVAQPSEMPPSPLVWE
Chain of various kinases (Homo sapiens, UniProt Q2M2I8) (Q2M2I8 whole entry): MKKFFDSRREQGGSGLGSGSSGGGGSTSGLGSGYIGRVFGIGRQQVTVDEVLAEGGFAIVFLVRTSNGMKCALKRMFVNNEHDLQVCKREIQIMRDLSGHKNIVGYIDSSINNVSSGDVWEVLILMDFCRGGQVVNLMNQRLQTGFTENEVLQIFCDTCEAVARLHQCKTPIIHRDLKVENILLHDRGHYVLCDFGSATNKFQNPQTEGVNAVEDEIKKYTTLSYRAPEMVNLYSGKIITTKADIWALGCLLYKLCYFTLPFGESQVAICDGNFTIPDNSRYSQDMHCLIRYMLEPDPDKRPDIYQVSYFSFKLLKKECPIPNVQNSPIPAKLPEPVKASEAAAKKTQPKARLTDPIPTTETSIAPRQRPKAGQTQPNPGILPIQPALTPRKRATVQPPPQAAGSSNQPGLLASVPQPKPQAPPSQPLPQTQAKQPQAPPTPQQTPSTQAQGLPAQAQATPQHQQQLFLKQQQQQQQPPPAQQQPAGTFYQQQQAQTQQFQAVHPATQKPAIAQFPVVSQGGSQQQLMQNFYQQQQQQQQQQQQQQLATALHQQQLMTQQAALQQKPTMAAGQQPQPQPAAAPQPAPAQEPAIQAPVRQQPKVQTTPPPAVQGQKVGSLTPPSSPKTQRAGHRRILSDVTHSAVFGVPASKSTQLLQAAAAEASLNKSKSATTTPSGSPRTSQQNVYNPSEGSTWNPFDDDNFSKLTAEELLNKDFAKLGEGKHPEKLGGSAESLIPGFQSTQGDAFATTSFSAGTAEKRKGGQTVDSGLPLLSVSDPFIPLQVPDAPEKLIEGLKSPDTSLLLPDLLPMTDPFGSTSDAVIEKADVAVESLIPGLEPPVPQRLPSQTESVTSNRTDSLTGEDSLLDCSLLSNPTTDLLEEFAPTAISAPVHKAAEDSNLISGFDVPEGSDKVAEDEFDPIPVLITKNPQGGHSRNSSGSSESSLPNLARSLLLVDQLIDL
Chain of various kinases (Homo sapiens, UniProt O00238) (O00238 14-502): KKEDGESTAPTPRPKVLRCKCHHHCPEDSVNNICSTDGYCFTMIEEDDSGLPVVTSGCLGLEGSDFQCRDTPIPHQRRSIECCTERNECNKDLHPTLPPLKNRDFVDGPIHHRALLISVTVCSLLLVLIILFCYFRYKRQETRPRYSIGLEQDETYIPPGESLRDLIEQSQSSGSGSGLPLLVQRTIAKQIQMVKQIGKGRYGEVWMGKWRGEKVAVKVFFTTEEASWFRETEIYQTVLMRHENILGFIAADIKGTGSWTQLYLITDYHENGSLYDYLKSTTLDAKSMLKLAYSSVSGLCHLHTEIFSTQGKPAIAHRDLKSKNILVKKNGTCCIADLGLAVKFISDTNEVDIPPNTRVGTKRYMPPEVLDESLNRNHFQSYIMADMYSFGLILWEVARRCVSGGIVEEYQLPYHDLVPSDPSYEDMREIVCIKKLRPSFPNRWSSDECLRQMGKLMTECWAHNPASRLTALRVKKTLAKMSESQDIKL

COc1ccc2c(c1)[C@]1(C[C@H]1c1ccc3c(/C=C/c4ccc(CN5C[C@@H](C)O[C@@H](C)C5)cc4)n[nH]c3c1)C(=O)N2 [CFI-400945]
% Inhibition (various kinases [1]): 5% and 8%
% Inhibition (various kinases [2]): 24% and 17%
% Inhibition (various kinases [3]): 10%
% Inhibition (various kinases [4]): 0% and 6%
% Inhibition (various kinases [5]): -2% and -1%
% Inhibition Average (various kinases [6]): 6%
% Inhibition Duplicate #1 (various kinases [6]): 4%
% Inhibition Duplicate #2 (various kinases [6]): 7%
% Inhibition (various kinases [7]): -4% and 3%
% Inhibition (various kinases [8]): 0% and -1%
% Inhibition (various kinases [9]): 9% and 8%
% Inhibition (various kinases [10]): 22% and 13%
% Inhibition (various kinases [11]): 9% and 6%
% Inhibition Average (various kinases [12]): 15%
% Inhibition Duplicate #1 (various kinases [12]): 14%
% Inhibition Duplicate #2 (various kinases [12]): 17%
% Inhibition (various kinases [13]): -4% and -3%
% Inhibition (various kinases [14]): -6% and -3%
% Inhibition (various kinases [15]; CDK11 (Inactive)): -3% and -1%
% Inhibition (various kinases [15]; CDK11/cyclin C): 16% and 13%
% Inhibition Average (various kinases [16]): -2%
% Inhibition Duplicate #1 (various kinases [16]): -2%
% Inhibition Duplicate #2 (various kinases [16]): -2%
% Inhibition (various kinases [17]): -9% and -6%
% Inhibition (various kinases [18]; ALK T1151_L1152insT): 31% and 35%
% Inhibition (various kinases [18]; EGFR (ErbB1) d747-749 A750P): 12% and 23%
% Inhibition (various kinases [18]; FLT3 ITD): 45% and 41%
% Inhibition (various kinases [18]; MAP3K7/MAP3K7IP1 (TAK1-TAB1)): 8%
IC50 (G401 cells): 3790 nM
IC50 (DAOY cells): 94 nM
growth of intracranial AT/RT tumors (luminescence) ([19]; 7.5 mg/kg/day oral for 21 days, p=0.0146): significantly reduced
survival of treated animals ([19]; 7.5 mg/kg/day oral for 21 days, p=0.0477, log-rank test): extended
nuclear area FC in tumor cells [19, 20]: 21.67
nuclear diameter FC in tumor cells [19, 20]: 2.69
